Here are results for 34 compounds from patent publication US20080021026A1, “BENZOTHIOPHENE INHIBITORS OF RHO KINASE” (priority 2006, published 2008).

The target of experiment [1] is T1, recombinant N-terminal GST-tagged human Rho kinase 2 (ROCK2, amino acids 1-552) (Homo sapiens, UniProt O75116).
T1 construct: ROCK2, amino acids 1-552; purchased Invitrogen Inc. PV3759
In words: In vitro Rho kinase assay (luciferase-based ATP consumption), ROCK2. Type of experiment: biochemical. As to conditions: recombinant GST-tagged human ROCK2, luciferase-based ATP consumption; read-out: ROCK2 IC50. The method, boiled down: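 Luciferase-based luminescence of leftover ATP after 2 h at 30 °C, where inhibition raises signal, reports activity of GST-tagged ROCK2 (aa 1-552) at 0.82 μg/ml. Conditions: S6 peptide 100 μg/ml, […], pH 7.5 Tris buffer. Results given as percent of H-1152P control activity.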

The target in experiment [2] is T2, recombinant N-terminal GST-tagged human Rho kinase 1 (ROCK1, amino acids 1-535) (Homo sapiens, UniProt Q13464).
T2 construct: ROCK1, amino acids 1-535; purchased Invitrogen Inc. PV-3691
T2 sequence (Q13464 1-535): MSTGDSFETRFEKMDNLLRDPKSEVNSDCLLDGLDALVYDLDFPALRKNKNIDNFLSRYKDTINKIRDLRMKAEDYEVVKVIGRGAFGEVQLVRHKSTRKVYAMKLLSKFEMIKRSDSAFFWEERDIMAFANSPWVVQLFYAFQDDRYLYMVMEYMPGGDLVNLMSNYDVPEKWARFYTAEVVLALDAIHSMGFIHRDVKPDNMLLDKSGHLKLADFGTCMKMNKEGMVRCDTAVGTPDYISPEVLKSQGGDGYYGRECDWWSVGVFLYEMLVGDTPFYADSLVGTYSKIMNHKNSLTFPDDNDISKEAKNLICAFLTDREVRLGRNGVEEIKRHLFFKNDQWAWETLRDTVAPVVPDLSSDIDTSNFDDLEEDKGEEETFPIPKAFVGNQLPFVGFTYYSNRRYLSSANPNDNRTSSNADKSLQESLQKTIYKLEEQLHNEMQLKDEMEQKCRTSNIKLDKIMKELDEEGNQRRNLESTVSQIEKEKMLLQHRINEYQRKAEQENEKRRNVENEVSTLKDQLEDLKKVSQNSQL
The experiment in a line: In vitro Rho kinase assay (luciferase-based ATP consumption), ROCK1. Conditions: recombinant GST-tagged human ROCK1, luciferase-based ATP consumption; read-out: ROCK1 IC50. It counts as biochemical. The method, boiled down:
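ATP depletion measured by firefly luciferase luminescence after 2 h at 30 °C, with inhibition raising signal and activity expressed relative to H-1152P. Reaction: 0.82 μg/ml recombinant GST-tagged ROCK1 (aa 1-535), S6 peptide 100 μg/ml, […], pH 7.5 Tris buffer.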

T1 sequence (O75116 1-552): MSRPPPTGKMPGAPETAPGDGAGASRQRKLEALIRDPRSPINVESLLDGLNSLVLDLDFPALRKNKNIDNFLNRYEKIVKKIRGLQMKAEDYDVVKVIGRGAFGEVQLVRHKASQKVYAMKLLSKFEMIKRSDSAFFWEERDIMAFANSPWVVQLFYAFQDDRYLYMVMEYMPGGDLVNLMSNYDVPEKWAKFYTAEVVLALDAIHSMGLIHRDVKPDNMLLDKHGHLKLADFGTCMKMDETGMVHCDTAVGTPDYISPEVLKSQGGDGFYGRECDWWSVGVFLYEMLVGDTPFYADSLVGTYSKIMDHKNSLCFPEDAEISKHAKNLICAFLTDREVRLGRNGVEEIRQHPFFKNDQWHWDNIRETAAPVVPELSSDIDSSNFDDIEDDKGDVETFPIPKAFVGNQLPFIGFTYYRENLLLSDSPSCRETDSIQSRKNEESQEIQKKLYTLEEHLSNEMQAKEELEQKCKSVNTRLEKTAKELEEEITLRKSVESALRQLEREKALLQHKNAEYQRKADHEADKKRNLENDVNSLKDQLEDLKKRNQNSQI

In general, IC50 refers to the concentration that inhibits the measured activity by half. Turning to `COc1nccc(Nc2ccc3sc(-c4ccnc(N)n4)c(C)c3c2)n1` [Example 74, 4-(5-(2-Methoxypyrimidin-4-ylamino)-3-methylbenzo[b]thiophen-2-yl)pyrimidin-2-amine], the IC50 in experiment [1] and in experiment [2] was less than 5 µM in each case.
For `Cc1c(-c2ccnc(N)n2)sc2ccc(CNC(=O)C(C)c3cccc(C(=O)c4ccccc4)c3)cc12` (centres unmarked) [Example 324, CC(C(═O)NCc1ccc2sc(c(C)c2c1)-c3ccnc(N)n3)c4cccc(c4)C(═O)c5ccccc5], the IC50 in experiment [1] and in experiment [2] was more than 5 µM throughout.
Take `Cc1c(-c2ccnc(N)n2)sc2ccc(CNC(=O)Cc3ccc(O)c(F)c3)cc12` [Example 186, Cc1c(sc2ccc(CNC(═O)Cc3ccc(O)c(F)c3)cc12)-c4ccnc(N)n4]: the IC50 in experiment [1] and in experiment [2] was less than 5 µM throughout.
Consider `Cc1c(-c2ccnc(N)n2)sc2ccc(CNC(=O)C(Cc3ccccn3)NC(=O)OC(C)(C)C)cc12` (centres unmarked) [Example 326, Cc1c(sc2ccc(CNC(═O)[C](Cc3ccccn3)NC(═O)OC(C)(C)C)cc12)-c4ccnc(N)n4], for which the IC50 in experiment [1] is more than 5 µM; in experiment [2], less than 5 µM.
Take `Cc1c(-c2ccnc(N)n2)sc2ccc(Sc3cccc(C(=O)O)c3)cc12` [Example 86, 3-(2-(2-Aminopyrimidin-4-yl)-3-methylbenzo[b]thiophen-5-ylthio)benzoic acid]: the IC50 in experiment [1] and in experiment [2] was less than 5 µM throughout.
With `Cc1c(-c2ccnc(N)n2)sc2ccc(CNC(=O)C=Cc3ccccc3F)cc12` [Example 173, Cc1c(sc2ccc(CNC(═O)C═Cc3ccccc3F)cc12)-c4ccnc(N)n4], the 50% inhibitory concentration (IC50) was less than 5 µM in experiment [1] and more than 5 µM in experiment [2].
For `Cc1cccc(C(=O)NCc2ccc3sc(-c4ccnc(N)n4)c(C)c3c2)c1O` [Example 139, Cc1cccc(C(═O)NCc2ccc3sc(c(C)c3c2)-c4ccnc(N)n4)c1O], the IC50 was less than 5 µM in experiment [1] and more than 5 µM in experiment [2].
For `Cc1c(-c2ccnc(N)n2)sc2ccc(CNC(=O)c3ccccn3)cc12` [Example 111, Cc1c(sc2ccc(CNC(═O)c3ccccn3)cc12)-c4ccnc(N)n4] the same measures were less than 5 µM and more than 5 µM.
On to `Cc1c(-c2ccnc(N)n2)sc2ccc(CNC(=O)CC#N)cc12` [Example 97, Cc1c(sc2ccc(CNC(═O)CC#N)cc12)-c3ccnc(N)n3], for which the IC50 in experiment [1] and in experiment [2] was less than 5 µM throughout.
Consider `Cc1c(-c2ccnc(N)n2)sc2ccc(CNC(=O)c3cncc(Br)c3)cc12` [Example 271, Cc1c(sc2ccc(CNC(═O)c3cncc(Br)c3)cc12)-c4ccnc(N)n4], for which the IC50 in experiment [1] is less than 5 µM; in experiment [2], more than 5 µM.
In the case of `Cc1c(-c2ccnc(N)n2)sc2ccc(Nc3cccc(NS(C)(=O)=O)c3)cc12` [Example 56, N-(3-(2-(2-Aminopyrimidin-4-yl)-3-methylbenzo[b]thiophen-5-ylamino)phenyl)methanesulfonamide], the IC50 in experiment [1] and in experiment [2] was less than 5 µM each time.
For `Cc1c(-c2ccnc(N)n2)sc2ccc(N)cc12` [Example 72, 4-(5-Amino-3-methylbenzo[b]thiophen-2-yl)pyrimidin-2-amine], the IC50 in experiment [1] and in experiment [2] was less than 5 µM throughout.
`CNc1nccc(Nc2ccc3sc(-c4ccnc(N)n4)c(C)c3c2)n1` [Example 76, N^4-(2-(2-Aminopyrimidin-4-yl)-3-methylbenzo[b]thiophen-5-yl)-N^2-methyl pyrimidine-2,4-diamine]: the IC50 in experiment [1] and in experiment [2] was less than 5 µM each time.
On to `COc1ccc(OC)c(C(=O)NCc2ccc3sc(-c4ccnc(N)n4)c(C)c3c2)c1` [Example 36, N-((2-(2-Aminopyrimidin-4-yl)-3-methylbenzo[b]thiophen-5-yl)methyl)-2,5-dimethoxybenzamide], for which the concentration for half-maximal inhibition (IC50) in experiment [1] and in experiment [2] was less than 5 µM each time.
Consider `Cc1c(-c2ccnc(N)n2)sc2ccc(CNC(=O)c3ccccc3C(F)(F)F)cc12` [Example 243, Cc1c(sc2ccc(CNC(═O)c3ccccc3C(F)(F)F)cc12)-c4ccnc(N)n4], for which the IC50 in experiment [1] and in experiment [2] was less than 5 µM throughout.
On to `Cc1c(-c2ccnc(N)n2)sc2ccc(CNC(=O)c3ccccc3C=O)cc12` [Example 129, Cc1c(sc2ccc(CNC(═O)c3ccccc3C═O)cc12)-c4ccnc(N)n4], for which the IC50 in experiment [1] and in experiment [2] was less than 5 µM in each case.
As for `CCN(CC)CCNc1nccc(Nc2ccc3sc(-c4ccnc(N)n4)c(C)c3c2)n1` [Example 77, N^4-(2-(2-Aminopyrimidin-4-yl)-3-methylbenzo[b]thiophen-5-yl)-N^2-(2-(diethylamino)ethyl)pyrimidine-2,4-diamine], the IC50 in experiment [1] and in experiment [2] was less than 5 µM in each case.
Regarding `COC(=O)c1cccc(Cc2ccc3sc(-c4ccnc(N)n4)c(C)c3c2)c1` [Example 42, Methyl 3-((2-(2-aminopyrimidin-4-yl)-3-methylbenzo[b]thiophen-5-yl)methyl)benzoate], the values for the concentration for half-maximal inhibition (IC50) in experiment [1] and in experiment [2] were less than 5 µM and more than 5 µM, respectively.
For `Cc1ccc([N+](=O)[O-])c(C(=O)NCc2ccc3sc(-c4ccnc(N)n4)c(C)c3c2)c1` [Example 217, Cc1ccc(c(c1)C(═O)NCc2ccc3sc(c(C)c3c2)-c4ccnc(N)n4)[N+]([O−])═O], the concentration for half-maximal inhibition (IC50) was less than 5 µM in experiment [1] and more than 5 µM in experiment [2].
With `Cc1cc(C(=O)NCc2ccc3sc(-c4ccnc(N)n4)c(C)c3c2)cc(Cl)n1` [Example 187, Cc1cc(cc(Cl)n1)C(═O)NCc2ccc3sc(c(C)c3c2)-c4ccnc(N)n4], the 50% inhibitory concentration (IC50) in experiment [1] and in experiment [2] was less than 5 µM throughout.
On to `CCN(CC)CCNC(=O)c1cccc(Cc2ccc3sc(-c4ccnc(N)n4)c(C)c3c2)c1` [Example 47, 3-((2-(2-Aminopyrimidin-4-yl)-3-methylbenzo[b]thiophen-5-yl)methyl)-N-(2-(diethylamino)ethyl)benzamide], for which the concentration for half-maximal inhibition (IC50) in experiment [1] and in experiment [2] was less than 5 µM throughout.
In the case of `Cc1c(-c2ccnc(N)n2)sc2ccc(Cc3cccc(C(=O)Nc4ccc(OCCN5CCCCC5)cc4)c3)cc12` [Example 44, 3-((2-(2-Aminopyrimidin-4-yl)-3-methylbenzo[b]thiophen-5-yl)methyl)-N-(4-(2-(piperidin-1-yl)ethoxy)phenyl)benzamide], the IC50 in experiment [1] and in experiment [2] was less than 5 µM in each case.
With `COc1cc(OC)c(C(=O)NCc2ccc3sc(-c4ccnc(N)n4)c(C)c3c2)c(OC)c1` [Example 277, COc1cc(OC)c(C(═O)NCc2ccc3sc(c(C)c3c2)-c4ccnc(N)n4)c(OC)c1], the half-inhibitory concentration (IC50) in experiment [1] and in experiment [2] was less than 5 µM in each case.
In the case of `Cc1c(-c2ccnc(N)n2)sc2ccc(Nc3cccc(NC(=O)c4ccc(OCCN5CCOCC5)cc4)c3)cc12` [Example 59, N-(3-(2-(2-Aminopyrimidin-4-yl)-3-methylbenzo[b]thiophen-5-ylamino)phenyl)-4-(2-morpholinoethoxy)benzamide], the IC50 in experiment [1] and in experiment [2] was less than 5 µM each time.
Consider `COc1cccc(OC)c1C(=O)NCc1ccc2sc(-c3ccnc(N)n3)c(C)c2c1` [Example 220, COc1cccc(OC)c1C(═O)NCc2ccc3sc(c(C)c3c2)-c4ccnc(N)n4], for which the half-inhibitory concentration (IC50) was less than 5 µM in experiment [1] and more than 5 µM in experiment [2].
Take `Cc1c(-c2ccnc(N)n2)sc2ccc(Oc3ccccc3)cc12` [Example 79, 4-(3-Methyl-5-phenoxybenzo[b]thiophen-2-yl)pyrimidin-2-amine]: the concentration for half-maximal inhibition (IC50) in experiment [1] and in experiment [2] was less than 5 µM each time.
For `Cc1c(-c2ccnc(N)n2)sc2ccc(CNC(=O)c3c(O)ccc4ccccc34)cc12` [Example 237, Cc1c(sc2ccc(CNC(═O)c3c(O)ccc4ccccc34)cc12)-c5ccnc(N)n5], the IC50 in experiment [1] and in experiment [2] was less than 5 µM throughout.
Consider `Cc1ccccc1CCC(=O)NCc1ccc2sc(-c3ccnc(N)n3)c(C)c2c1` [Example 167, Cc1ccccc1CCC(═O)NCc2ccc3sc(c(C)c3c2)-c4ccnc(N)n4], for which the half-maximal inhibitory concentration (IC50) in experiment [1] was less than 5 µM; in experiment [2], more than 5 µM.
In the case of `Cc1c(-c2ccnc(N)n2)sc2ccc(C(=O)c3ccccc3)cc12` [Example 87, (2-(2-Aminopyrimidin-4-yl)-3-methylbenzo[b]thiophen-5-yl)(phenyl)methanone], the figures for the IC50 in experiment [1] and in experiment [2] were less than 5 µM and more than 5 µM, respectively.
In the same order, the values of `Cc1cccc(CCC(=O)NCc2ccc3sc(-c4ccnc(N)n4)c(C)c3c2)c1` [Example 168, Cc1cccc(CCC(═O)NCc2ccc3sc(c(C)c3c2)-c4ccnc(N)n4)c1] are less than 5 µM and less than 5 µM.
For the compound `CCc1c(-c2ccnc(N)n2)sc2ccc(Cl)cc12` [Example 16, 4-(5-Chloro-3-ethylbenzo[b]thiophen-2-yl)pyrimidin-2-amine], the IC50 in experiment [1] and in experiment [2] was less than 5 µM each time.
On to `Cc1c(-c2nccnc2N)sc2ccc(Cl)cc12` [Example 12, 3-(5-Chloro-3-methylbenzo[b]thiophen-2-yl)pyrazin-2-amine], for which the IC50 in experiment [1] and in experiment [2] was more than 5 µM in each case.
For `COc1ccccc1C=CC(=O)NCc1ccc2sc(-c3ccnc(N)n3)c(C)c2c1` [Example 200, COc1ccccc1C═CC(═O)NCc2ccc3sc(c(C)c3c2)-c4ccnc(N)n4], the half-inhibitory concentration (IC50) in experiment [1] and in experiment [2] was less than 5 µM throughout.
Regarding `CC(=O)NCC(=O)NCc1ccc2sc(-c3ccnc(N)n3)c(C)c2c1` [Example 107, CC(═O)NCC(═O)NCc1ccc2sc(c(C)c2c1)-c3ccnc(N)n3], the concentration for half-maximal inhibition (IC50) in experiment [1] is less than 5 µM; in experiment [2], more than 5 µM.
